Source: ChEMBL document CHEMBL1201862, “PubChem BioAssay data set” (2004)
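96-well plates; 48 h exposure; 5 concentrations. Endpoints by linear interpolation between flanking doses. Not reached: highest tested concentration assigned. Abbreviation: GI50, concentration required for 50% inhibition of growth.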 Calls of active or inactive are those of the source. No stated cut-off is given here; in the data, active = GI50 up to about 1.1 µM and inactive = higher.

Experiments:
Assay in all cases: NCI anticancer screen, dose series, 48 h
UO-31 = system: UO-31
HCT-116 = system: HCT-116
IGROV-1 = system: IGROV-1
CCRF-CEM = system: CCRF-CEM
NCI/ADR-RES = system: NCI/ADR-RES
ACHN = system: ACHN
T47D = system: T47D
SNB-75 = system: SNB-75
COLO 205 = system: COLO 205
CAKI-1 = system: CAKI-1
MDA-N = system: MDA-N
M14 = system: M14
U-251 = system: U-251
HOP-62 = system: HOP-62
HCC 2998 = system: HCC 2998
DU-145 = system: DU-145
OVCAR-3 = system: OVCAR-3
SF-268 = system: SF-268
PC-3 = system: PC-3
SK-MEL-2 = system: SK-MEL-2

`COCc1cc2c(cc1/C(=C/[N+](=O)[O-])CS(=O)(=O)c1ccccc1)OCO2` was tested, and the GI50 (UO-31) was > 100 µM (inactive), the GI50 (HCT-116) was > 100 µM (inactive) and the GI50 (IGROV-1) was > 100 µM (inactive). For the same molecule, the GI50 (CCRF-CEM) was > 100 µM (inactive), the GI50 (NCI/ADR-RES) was > 100 µM (inactive) and the GI50 (ACHN) was > 100 µM (inactive). The GI50 (T47D) was > 100 µM (inactive), the GI50 (SNB-75) was > 100 µM (inactive) and the GI50 (COLO 205) was > 100 µM (inactive). The GI50 (CAKI-1) was > 100 µM (inactive), the GI50 (MDA-N) was > 100 µM (inactive) and the GI50 (M14) was > 100 µM (inactive). The GI50 (U-251) was > 100 µM (inactive), the GI50 (HOP-62) was > 100 µM (inactive) and the GI50 (HCC 2998) was > 100 µM (inactive). For the same molecule, the GI50 (DU-145) was > 100 µM (inactive), the GI50 (OVCAR-3) was > 100 µM (inactive) and the GI50 (SF-268) was > 100 µM (inactive).

`O=C(O)c1cc2ccccc2c(/N=N/c2c([N+](=O)[O-])cc([N+](=O)[O-])cc2S(=O)(=O)O)c1O` was tested, and the GI50 (PC-3) was > 100 µM (inactive), the GI50 (UO-31) was > 100 µM (inactive) and the GI50 (HCT-116) was > 100 µM (inactive). For the same molecule, the GI50 (SK-MEL-2) was > 100 µM (inactive), the GI50 (IGROV-1) was > 100 µM (inactive) and the GI50 (CCRF-CEM) was > 100 µM (inactive). The GI50 (NCI/ADR-RES) was > 100 µM (inactive), the GI50 (ACHN) was > 100 µM (inactive) and the GI50 (SNB-75) was > 100 µM (inactive). The GI50 (COLO 205) was > 100 µM (inactive), the GI50 (CAKI-1) was > 100 µM (inactive) and the GI50 (MDA-N) was > 100 µM (inactive). The GI50 (M14) was > 100 µM (inactive), the GI50 (U-251) was > 100 µM (inactive) and the GI50 (HOP-62) was > 100 µM (inactive). The GI50 (OVCAR-3) was > 100 µM (inactive) and the GI50 (SF-268) was > 100 µM (inactive).

For `[O-][S+](CCc1ccccc1)Nc1ccccc1` (stereo not drawn), the GI50 (PC-3) was > 100 µM (inactive), the GI50 (UO-31) was > 100 µM (inactive) and the GI50 (HCT-116) was > 100 µM (inactive). The GI50 (IGROV-1) was > 100 µM (inactive), the GI50 (CCRF-CEM) was > 100 µM (inactive) and the GI50 (NCI/ADR-RES) was 58.5 µM (inactive). For the same molecule, the GI50 (ACHN) was > 100 µM (inactive), the GI50 (SNB-75) was > 100 µM (inactive) and the GI50 (COLO 205) was > 100 µM (inactive). The GI50 (CAKI-1) was > 100 µM (inactive), the GI50 (MDA-N) was > 100 µM (inactive) and the GI50 (M14) was > 100 µM (inactive). For the same molecule, the GI50 (U-251) was > 100 µM (inactive), the GI50 (HOP-62) was > 100 µM (inactive) and the GI50 (HCC 2998) was > 100 µM (inactive). The GI50 (DU-145) was > 100 µM (inactive), the GI50 (OVCAR-3) was > 100 µM (inactive) and the GI50 (SF-268) was > 100 µM (inactive).

In the case of `O=[N+]([O-])c1ccc(OCc2nnc(CCCCCCCCc3nnc(COc4ccc([N+](=O)[O-])cc4)o3)o2)cc1`, the GI50 (PC-3) is reported as > 100 µM (inactive), the GI50 (UO-31) is reported as > 100 µM (inactive) and the GI50 (HCT-116) is reported as 77.6 µM (inactive). For the same molecule, the GI50 (SK-MEL-2) was > 100 µM (inactive), the GI50 (IGROV-1) was > 100 µM (inactive) and the GI50 (NCI/ADR-RES) was > 100 µM (inactive). The GI50 (ACHN) was > 100 µM (inactive), the GI50 (SNB-75) was > 100 µM (inactive) and the GI50 (COLO 205) was > 100 µM (inactive). The GI50 (M14) was > 100 µM (inactive), the GI50 (U-251) was 95.9 µM (inactive) and the GI50 (HCC 2998) was > 100 µM (inactive). For the same molecule, the GI50 (DU-145) was > 100 µM (inactive), the GI50 (OVCAR-3) was > 100 µM (inactive) and the GI50 (SF-268) was 44.5 µM (inactive).

In the case of `COc1ccc(N[S+]([O-])CCc2ccccc2)cc1` (stereo not drawn), the GI50 (UO-31) is reported as > 100 µM (inactive), the GI50 (HCT-116) is reported as > 100 µM (inactive) and the GI50 (IGROV-1) is reported as 92.5 µM (inactive). For the same molecule, the GI50 (CCRF-CEM) was > 100 µM (inactive), the GI50 (NCI/ADR-RES) was 58.1 µM (inactive) and the GI50 (ACHN) was > 100 µM (inactive). For the same molecule, the GI50 (SNB-75) was > 100 µM (inactive), the GI50 (COLO 205) was > 100 µM (inactive) and the GI50 (CAKI-1) was > 100 µM (inactive). For the same molecule, the GI50 (MDA-N) was > 100 µM (inactive), the GI50 (M14) was > 100 µM (inactive) and the GI50 (U-251) was > 100 µM (inactive). For the same molecule, the GI50 (HOP-62) was > 100 µM (inactive), the GI50 (HCC 2998) was 94 µM (inactive) and the GI50 (DU-145) was > 100 µM (inactive). The GI50 (OVCAR-3) was > 100 µM (inactive) and the GI50 (SF-268) was > 100 µM (inactive).

`O=C1C(Cl)=C(Nc2ccc(S(=O)(=O)O)cc2)C(=O)c2ccccc21` was tested, and the GI50 (PC-3) was 23 µM (inactive), the GI50 (UO-31) was 15 µM (inactive) and the GI50 (HCT-116) was 52.6 µM (inactive). The GI50 (SK-MEL-2) was 23.7 µM (inactive), the GI50 (IGROV-1) was 20 µM (inactive) and the GI50 (CCRF-CEM) was 26.7 µM (inactive). For the same molecule, the GI50 (NCI/ADR-RES) was > 100 µM (inactive), the GI50 (ACHN) was 22 µM (inactive) and the GI50 (SNB-75) was 67.8 µM (inactive). The GI50 (COLO 205) was 17.4 µM (inactive), the GI50 (CAKI-1) was 39.5 µM (inactive) and the GI50 (M14) was 21.4 µM (inactive). The GI50 (U-251) was 36.8 µM (inactive), the GI50 (HOP-62) was 36.2 µM (inactive) and the GI50 (HCC 2998) was 95.9 µM (inactive). The GI50 (DU-145) was 16.3 µM (inactive), the GI50 (OVCAR-3) was 20.8 µM (inactive) and the GI50 (SF-268) was 39.3 µM (inactive).

For `Oc1cc2c3c(c1)c1cc4c(cc1c[n+]3CC2)OCO4`, the GI50 (PC-3) was 3 µM (inactive), the GI50 (UO-31) was 5.42 µM (inactive) and the GI50 (HCT-116) was 1.55 µM (inactive). For the same molecule, the GI50 (SK-MEL-2) was 9.68 µM (inactive), the GI50 (IGROV-1) was 2.4 µM (inactive) and the GI50 (CCRF-CEM) was 2.84 µM (inactive). The GI50 (ACHN) was 3.1 µM (inactive), the GI50 (T47D) was 3.47 µM (inactive) and the GI50 (SNB-75) was 2.25 µM (inactive). For the same molecule, the GI50 (COLO 205) was 3.73 µM (inactive), the GI50 (CAKI-1) was 10.2 µM (inactive) and the GI50 (MDA-N) was 8.63 µM (inactive). For the same molecule, the GI50 (M14) was 32.1 µM (inactive), the GI50 (U-251) was 0.971 µM (active) and the GI50 (HOP-62) was 8.45 µM (inactive). For the same molecule, the GI50 (HCC 2998) was 4.4 µM (inactive), the GI50 (DU-145) was 3.23 µM (inactive) and the GI50 (OVCAR-3) was 4.88 µM (inactive). The GI50 (SF-268) was 0.224 µM (active).

For `CC1CSc2nc3nc(S)nc-3c(O)n2C1` (stereo not drawn), the GI50 (UO-31) was > 100 µM (inactive), the GI50 (HCT-116) was > 100 µM (inactive) and the GI50 (IGROV-1) was > 100 µM (inactive). The GI50 (CCRF-CEM) was > 100 µM (inactive), the GI50 (NCI/ADR-RES) was > 100 µM (inactive) and the GI50 (ACHN) was > 100 µM (inactive). For the same molecule, the GI50 (T47D) was > 100 µM (inactive), the GI50 (SNB-75) was > 100 µM (inactive) and the GI50 (COLO 205) was > 100 µM (inactive). The GI50 (CAKI-1) was > 100 µM (inactive), the GI50 (U-251) was > 100 µM (inactive) and the GI50 (HOP-62) was > 100 µM (inactive). The GI50 (HCC 2998) was > 100 µM (inactive), the GI50 (DU-145) was > 100 µM (inactive) and the GI50 (OVCAR-3) was > 100 µM (inactive). The GI50 (SF-268) was > 100 µM (inactive).
